Data taken from patent US20240376097A1, “BCL-2 Inhibitor” (BeiGene Ltd., priority 2020, published 2024).
Like-named read-outs stand apart in the source and are kept apart here.

Assays:
Assay type in all cases: binding
[1] = molecular target: Recombinant human Bcl-2 protein (Homo sapiens (Human), UniProt P10415); assay: Bcl-2 TR-FRET Assay
Description: Biological Example: Bcl-2 TR-FRET Assay
Compounds disclosed herein were tested for blocking of Bcl-2 protein with its ligand in an assay based on Time-Resolved Fluorescence Resonance Energy Transfer (TR-FRET) methodology. Recombinant human 0.05 nM Bcl-2 protein was pre-incubated with a serial dilution of compounds disclosed herein (top final concentration is 1 uM or 0.1 uM or 0.02 uM or 0.01 uM, 10 points) at room temperature for 0.5 hour in an assay buffer containing 20 mM potassium phosphate buffer, pH 7.5, 50 mM NaCl. 1 mM EDTA, 0.05% Tween-20, 0.01% BSA. Then the FITC labeled Bak peptide Ac-GQVGRQLAIIGDK(FITC)INR-amide (0.5 nM) and MAb Anti 6His Tb cryptate Gold were added to plate and further incubated at room temperature for 1 hour. The TR-FRET signals (337 nm-520 nm-490 nm) were read on BMG PHERAstar FSX instrument. The inhibition percentage of Bcl-2 interaction with its ligand in presence of increasing concentrations of compounds was calculated based on the TR-FRET signals. The IC50 for each compound was derived from fitting the data to the four-parameter logistic equation by Graphpad Prism software or Dotmatics.

[2] = molecular target: recombinant human Bcl-2-G101V protein (Homo sapiens (Human), UniProt P10415, G101V); assay: Bcl-2-G101V TR-FRET Assay; settings: Bcl-2 G101V mutant, TR-FRET; read-out: Biochemical assay (IC50, nM) Bcl-2 G101V
Description: (§1) Biological Example: Bcl-2-G101V TR-FRET Assay
(§2) […]. The TR-FRET signals (ex337 nm, em490 nm/520 nm) were read on BMG PHERAstar FSX instrument. The inhibition percentage of Bcl-2-G101V interaction with its ligand in presence of increasing concentrations of compounds was calculated based on the ratio of fluorescence at 490 nm to that at 520 nm. The IC50 for each compound was derived from fitting the data to the four-parameter logistic equation by Graphpad Prism software or Dotmatics.

[3] = tested on: recombinant human Bcl-2-G101V protein; assay: Bcl-2-G101V TR-FRET Assay; settings: for Ratio of Bcl-2 G101V/WT: ratio of biochemical IC50 Bcl-2 G101V / Bcl-2 WT
Description: as §1, §2

[4] = molecular target: recombinant human Bcl-2 D103Y protein (Homo sapiens (Human), UniProt P10415, D103Y); assay: Bcl-2-D103Y Biochemical Assay (TR-FRET); settings: for Ratio of Bcl-2 D103Y/Bcl-2 WT: ratio of IC50; for IC50: TR-FRET, FITC labeled Bak peptide
Description: Biological Example: Bcl-2-D103Y Biochemical Assay
as §2, with “Bcl-2 D103Y” for “Bcl-2-G101V”, “by” for “by Graphpad Prism software or”

[5] = Bcl-2 wild type, TR-FRET, read-out: Biochemical assay (IC50, nM) Bcl-2 WT
[6] = wild type Bcl-2, unit inferred, read-out: Bcl-2 WT

Row | Structure (SMILES) | Ratio of Bcl-2 G101V/WT [3] | Ratio of Bcl-2 D103Y/Bcl-2 WT [4] | IC50 [1, 6] [nM] | IC50 [4] [nM] | also measured
1 | CC#CC(c1ccccc1)N1CCN(C2CC3(CCN(c4ccc(C(=O)NS(=O)(=O)c5ccc(NC[C@H]6CC[C@](C)(O)CC6)c([N+](=O)[O-])c5)c(Oc5cnc6[nH]ccc6c5)c4)CC3)C2)C(c2ccccc2C(C)C)C1 (stereo partly shown) [Example 63] | 14.3 |  |  |  | IC50 [1, 5]: 1.4 nM; IC50 [2]: 20 nM
2 | COc1cc(CN2CCN(C3CC4(CCN(c5ccc(C(=O)NS(=O)(=O)c6ccc(NC[C@H]7CC[C@](C)(O)CC7)c([N+](=O)[O-])c6)c(Oc6cnc7[nH]ccc7c6)c5)CC4)C3)[C@H](c3ccccc3C(C)C)C2)ccc1C1CCCC1 [Example 294, 2-((1H-pyrrolo[2,3-b]pyridin-5-yl)oxy)-4-(2-((R)-4-(4-cyclopentyl-3-methoxybenzyl)-2-(2-isopropylphenyl)piperazin-1-yl)-7-azaspiro[3.5]nonan-7-yl)-N-((4-((((1r,4r)-4-hydroxy-4-methylcyclohexyl)methyl)amino)-3-nitrophenyl)sulfonyl)benzamide] | 3.2 |  |  |  | IC50 [1, 5]: 3.2 nM; IC50 [2]: 10 nM
3 | CC(C)c1ccccc1[C@@H]1CN(Cc2ccc(C3CCOCC3)cc2)CCN1C1CC2(C1)CN(c1ccc(C(=O)NS(=O)(=O)c3ccc(NC[C@H]4CC[C@](C)(O)CC4)c([N+](=O)[O-])c3)c(Oc3cnc4[nH]cc(F)c4c3)c1)C2 [Example 370, 2-((3-fluoro-1H-pyrrolo[2,3-b]pyridin-5-yl)oxy)-N-((4-((((1r,4r)-4-hydroxy-4-methylcyclohexyl)methyl)amino)-3-nitrophenyl)sulfonyl)-4-(6-((R)-2-(2-isopropylphenyl)-4-(4-(tetrahydro-2H-pyran-4-yl)benzyl)piperazin-1-yl)-2-azaspiro[3.3]heptan-2-yl) benzamide] | 3.7 |  |  |  | IC50 [1, 5]: 0.18 nM; IC50 [2]: 0.67 nM
4 | COc1ccc(C(=O)N2CCN(C3CC4(CCN(c5ccc(C(=O)NS(=O)(=O)c6ccc(NC[C@H]7CC[C@](C)(O)CC7)c([N+](=O)[O-])c6)c(Oc6cnc7[nH]ccc7c6)c5)CC4)C3)C(c3ccccc3C(C)C)C2)cc1 (stereo partly shown) [Example 61, 2-((1H-pyrrolo[2,3-b]pyridin-5-yl)oxy)-N-((4-((((1r,4r)-4-hydroxy-4-methylcyclohexyl)methyl)amino)-3-nitrophenyl)sulfonyl)-4-(2-(2-(2-isopropylphenyl)-4-(4-methoxybenzoyl)piperazin-1-yl)-7-azaspiro[3.5]nonan-7-yl) benzamide] |  |  |  |  | ratio of IC50 of Bcl-2 G101V/Bcl-2 wt, compared with Example F132b in WO2019210828 and ABT-199 (venetoclax) ([3]; comparison in words): much lower
5 | CC(C)c1ccccc1[C@@H]1CN(Cc2cnn(C)c2)CCN1C1CC2(CCN(c3ccc(C(=O)NS(=O)(=O)c4ccc(NC[C@H]5CC[C@](C)(O)CC5)c([N+](=O)[O-])c4)c(Oc4cnc5[nH]ccc5c4)c3)CC2)C1 (single isomer, unassigned) [Example 22a, 2-((1H-pyrrolo[2,3-b]pyridin-5-yl)oxy)-N-((4-((((1r,4r)-4-hydroxy-4-methylcyclohexyl)methyl)amino)-3-nitrophenyl)sulfonyl)-4-(2-((R or S)-2-(2-isopropylphenyl)-4-((1-methyl-1H-pyrazol-4-yl)methyl)piperazin-1-yl)-7-azaspiro [3.5]nonan-7-yl)benzamide] | 8.1 | 5.2 |  |  | ratio of Bcl-2 D103Y/Bcl-2 wt, compared with F91b in WO2019210828 ([4]; comparison in words): significantly lower
6 | CC(C)c1ccccc1C1CN(C2COC2)CCN1C1CC2(CCN(c3ccc(C(=O)NS(=O)(=O)c4ccc(NC[C@H]5CC[C@](C)(O)CC5)c([N+](=O)[O-])c4)c(Oc4cnc5[nH]ccc5c4)c3)CC2)C1 (single isomer, unassigned) [Example 6a, 2-((1H-pyrrolo[2,3-b]pyridin-5-yl)oxy)-N-((4-((((1r,4r)-4-hydroxy-4-methylcyclohexyl)methyl)amino)-3-nitrophenyl)sulfonyl)-4-(2-((S or R)-2-(2-isopropylphenyl)-4-(oxetan-3-yl)piperazin-1-yl)-7-azaspiro[3.5]nonan-7-yl)benzamide] |  |  | 0.0078 | 0.11 | 
7 | COc1ccc(CN2CCN(C3CC4(CCN(c5ccc(C(=O)NS(=O)(=O)c6ccc(NCC7CCC(CO)O7)c([N+](=O)[O-])c6)c(Oc6cnc7[nH]ccc7c6)c5)CC4)C3)[C@H](c3ccccc3C(C)C)C2)cc1 (stereo partly drawn) [Example 220, 2-((1H-pyrrolo[2,3-b]pyridin-5-yl)oxy)-N-((4-(((5-(hydroxymethyl)tetrahydrofuran-2-yl)methyl)amino)-3-nitrophenyl)sulfonyl)-4-(2-((R)-2-(2-isopropylphenyl)-4-(4-methoxybenzyl)piperazin-1-yl)-7-azaspiro[3.5]nonan-7-yl) benzamide] |  | 1.8 | 0.044 | 0.077 | 
8 | CC(C)c1ccccc1C1CN(Cc2ccc3occc3c2)CCN1C1CC2(CCN(c3ccc(C(=O)NS(=O)(=O)c4ccc(NC[C@H]5CC[C@](C)(O)CC5)c([N+](=O)[O-])c4)c(Oc4cnc5[nH]ccc5c4)c3)CC2)C1 (stereo partly shown) [Example 96, 2-((1H-pyrrolo[2,3-b]pyridin-5-yl)oxy)-4-(2-(4-(benzofuran-5-ylmethyl)-2-(2-isopropylphenyl)piperazin-1-yl)-7-azaspiro[3.5]nonan-7-yl)-N-((4-((((1r,4r)-4-hydroxy-4-methylcyclohexyl)methyl)amino)-3-nitrophenyl)sulfonyl)benzamide] |  | 5.6 | 0.041 | 0.23 | 
9 | COc1ccc(CN2CCN(C3CC4(C3)CN(c3ccc(C(=O)NS(=O)(=O)c5ccc(NC[C@H]6CC[C@](C)(O)CC6)c([N+](=O)[O-])c5)c(Oc5cnc6[nH]cc(Cl)c6c5)c3)C4)[C@H](c3ccccc3C(C)C)C2)cc1 [Example 207, 2-((3-chloro-1H-pyrrolo[2,3-b]pyridin-5-yl)oxy)-N-((4-((((1r,4r)-4-hydroxy-4-methylcyclohexyl)methyl)amino)-3-nitrophenyl)sulfonyl)-4-(6-((R)-2-(2-isopropylphenyl)-4-(4-methoxybenzyl)piperazin-1-yl)-2-azaspiro[3.3]heptan-2-yl) benzamide] |  | 1.1 | 0.2 | 0.22 | 
10 | CC(C)c1ccccc1[C@H]1CN(C2COC2)CCN1C1CC2(CCN(c3ccc(C(=O)NS(=O)(=O)c4ccc(NC[C@H]5CC[C@](C)(O)CC5)c([N+](=O)[O-])c4)c(Oc4cnc5[nH]ccc5c4)c3)CC2)C1 (single isomer, unassigned) [Example 6a, 2-((1H-pyrrolo[2,3-b]pyridin-5-yl)oxy)-N-((4-((((1r,4r)-4-hydroxy-4-methylcyclohexyl)methyl)amino)-3-nitrophenyl)sulfonyl)-4-(2-((S or R)-2-(2-isopropylphenyl)-4-(oxetan-3-yl)piperazin-1-yl)-7-azaspiro[3.5]nonan-7-yl)benzamide] |  | 13 |  |  | 
11 | CC(C)c1ccccc1C1CN(C(C)C)CCN1C1CC2(CCN(c3ccc(C(=O)NS(=O)(=O)c4ccc(NC[C@H]5CC[C@](C)(O)CC5)c([N+](=O)[O-])c4)c(Oc4cnc5[nH]ccc5c4)c3)CC2)C1 (stereo partly shown) [Example 3, 2-((1H-pyrrolo[2,3-b]pyridin-5-yl)oxy)-N-((4-((((1r,4r)-4-hydroxy-4-methylcyclohexyl)methyl)amino)-3-nitrophenyl)sulfonyl)-4-(2-(4-isopropyl-2-(2-isopropylphenyl)piperazin-1-yl)-7-azaspiro[3.5]nonan-7-yl)benzamide] |  | 11 | 0.019 | 0.11 | 
12 | COc1ccc(N(C)C2CCN(C3CC4(CCN(c5ccc(C(=O)NS(=O)(=O)c6ccc(NC[C@H]7CC[C@](C)(O)CC7)c([N+](=O)[O-])c6)c(Oc6cnc7[nH]ccc7c6)c5)CC4)C3)C(c3ccccc3C(C)C)C2)cc1 (stereo partly shown) [Example 150] |  | 4.1 | 0.13 | 0.53 | 
